Results from patent publication US20240417399A1, “ARYL HYDROCARBON RECEPTOR (AHR) MODULATORS AND THERAPEUTIC USES THEREOF” (GALILEO BIOSYSTEMS, INC., priority 2021, published 2024).

What was measured:
IL-2 = IL-2 release from T-cells, inflammation induced by CD2, CD3, and CD28; type: cell-based; details: highest test concentrations
Description: (§1) Inflammation of T-cells were induced by CD2, CD3, and CD28. […] FIG. 7B depicts concentration response curves of inhibition of IL-2 and IL-4 release and cell viability for tapiranof.

IL-8 = IL-8 release from human keratinocytes, inflammation induced by IL-17 and IFN-α; type: cell-based; details: human keratinocytes induced by IL-17 and IFN-α
Description: FIG. 6B depicts concentration response curves of inhibition of IL-8 release and cell viability for tapiranof.

IL-4 = IL-4 release from T-cells, inflammation induced by CD2, CD3, and CD28; type: cell-based; details: highest test concentrations
Description: as §1

human keratinocytes = experiment: Cell viability of human keratinocytes, inflammation induced by IL-4, IL-13, IL-22 and IFN-γ; type: cell-based; details: human keratinocytes induced by IL-4, IL-13, IL-22 and IFN-γ
Description: (§2) Inflammation of human keratinocytes was induced by IL-4, IL-13, IL-22 and IFN-γ. […] FIG. 5B depicts concentration response curves of CCL2 release and cell viability for tapiranof.

CCL2 = CCL2 release from human keratinocytes, inflammation induced by IL-4, IL-13, IL-22 and IFN-γ; type: cell-based; details: human keratinocytes induced by IL-4, IL-13, IL-22 and IFN-γ
Description: as §2

Male Balb/c mice = experiment: Imiquimod (IMQ)-induced skin inflammation: ear swelling; type: in vivo; details: topical on right ear, 20 μL, 50 mM once daily Day 1 to Day 9, IMQ cream
Protocol: (§3) The compounds are administered on the right ear once daily from Day 1 to Day 9 for 9 consecutive days. […] Daily Clobetasol dosage is 20 mg of 0.05% cream. One hour after administration, 15 mg imiquimod (IMQ) cream (5%, Aldaras) is applied topically on the right ear from Day 1 to Day 9 for 9 consecutive days. Ear swelling is measured (mm) as an index of inflammation on Day 0 and thereafter 30 min before dosing on Days 2, 4, 6 and 8. On Day 10, ear swelling is measured 24 hours after the last dosing. Ear edema is calculated by subtracting the thickness of Day 0 (normal control) from Day n (treated ear). Percent inhibition is calculated according to the formula: (Lc−Lt)/Lc×100, where Lc and Lt refer to increase of ear thickness in control and treated mice, respectively. Clinical scoring is done on the same days as the measurement of ear swelling. Body weight is recorded on Day 0 and thereafter daily before dosing. […] Right ears are harvested, weighed after the last ear swelling measurement, and cut into two parts, one part to be kept in 10% formalin for histopathological examination and the second part to be stored in RNAlater® solution at −20° C. for detection of IL-17 A, IL-22, GAPDH, and beta defensin with quantitative real-time PCR (qPCR). Dermal thickness is measured after taking photographs under a light microscope for the histopathological examination sections. […]

[1] = Imiquimod (IMQ)-induced skin inflammation: body weight; type: in vivo; details: Balb/c mice, topical on right ear, 20 μL, 50 mM once daily Day 1 to Day 9
Protocol: as §3

IL-17 = experiment: Imiquimod (IMQ)-induced skin inflammation: IL-17 gene expression in ear by qPCR; type: in vivo; details: Balb/c mice, topical on right ear, 20 μL, 50 mM once daily Day 1 to Day 9, IMQ cream
Protocol: as §3

| SMILES | inhibition of IL-2 release (IL-2) | inhibition of IL-8 release (IL-8) | inhibition of IL-4 release (IL-4) | cell viability (human keratinocytes) | inhibition of CCL2 release (CCL2) | ear swelling compared to vehicle (Male Balb/c mice) | effect on body weights [1] | IL-17 gene expression in the ear (IL-17) |
| --- | --- | --- | --- | --- | --- | --- | --- | --- |
| CC(C)c1c(O)cc(/C=C/c2ccccc2)cc1O [tapiranof, reference compound] | inhibited release of IL-2 and IL-4 at the highest test concentrations | inhibited release of IL-8 | inhibited release of IL-2 and IL-4 at the highest test concentrations | inhibition of cell viability at higher concentrations | inhibited release of CCL2 | – | – | – |
| O=C(c1nc2ccccc2[nH]1)c1c[nH]c2ccccc12 [Compound 10] | inhibited release of IL-2 and IL-4 at the highest test concentrations | inhibited release of IL-8 | inhibited release of IL-2 and IL-4 at the highest test concentrations | – | inhibited release of CCL2 | significant reductions in ear swelling | no significant effect on body weights | reduction in IL-17 gene expression |
